Test [1] concerns the target T1, truncated PFA0210c (Trunc.) (Plasmodium falciparum, UniProt Q8I298).
T1 construct: gene PF3D7_0104200; residues 144-418 (C-terminal 48 residues removed); N-terminal MBP and C-terminal His6 kept; E. coli BL21(DE3)
Description: […]-phosphatidylcholine transfer from donor to acceptor vesicles. In kind it is biochemical. Particulars: pH 7.4, 37 °C, 30 min; 25 μg/ml protein; labelled compound (trace in phosphatidylcholine vesicles).

The target in test [2] is T2, PFA0210c (full-length, FL) (Plasmodium falciparum, UniProt Q8I298).
T2 construct: gene PF3D7_0104200; residues 144-466 (N-terminal region omitted, START domain plus whole C-terminal extension); N-terminal MBP and C-terminal His6 kept; E. coli BL21(DE3); monomeric SEC fractions; strain only from the locus tag and parasite line
T2 sequence (Q8I298 144-466): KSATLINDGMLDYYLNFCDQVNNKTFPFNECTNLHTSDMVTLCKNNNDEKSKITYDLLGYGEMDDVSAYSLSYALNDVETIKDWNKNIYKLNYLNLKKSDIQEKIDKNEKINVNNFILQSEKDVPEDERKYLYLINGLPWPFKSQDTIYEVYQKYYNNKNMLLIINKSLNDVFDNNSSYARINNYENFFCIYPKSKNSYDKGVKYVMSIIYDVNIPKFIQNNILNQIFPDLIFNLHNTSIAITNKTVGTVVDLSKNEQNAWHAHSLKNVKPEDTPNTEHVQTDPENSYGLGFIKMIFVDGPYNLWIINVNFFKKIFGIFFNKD
The test is described as above. The note with it: pH 7.4, 37 °C, 30 min; 25 μg/ml protein; labelled compound (trace in phosphatidylcholine vesicles). In kind it is biochemical.

Molecules are shown by their SMILES.

On to `CCCCCCCCCCCCCCCC(=O)OC[C@H](COP(=O)([O-])OCC[N+](C)(C)C)OC(=O)CCCCCCCCCCCCCCC` [L-α-dipalmitoyl-phosphatidylcholine], for which the phospholipid transfer activity result is on record as “All the truncated proteins showed higher phospholipid transfer activity than the full-length protein” in test [1] and “measures the transfer of radiolabeled phosphatidylcholine from a small population of donor vesicles” in test [2].

The values are drawn from article PMC5104948, “Regulation and Essentiality of the StAR-related Lipid Transfer (START) Domain-containing Phospholipid Transfer Protein PFA0210c in Malaria Parasites” (The Journal of Biological Chemistry, 2016).
